# According to patent publication US9023812B2, “Neuroprotective ganglioside compositions for use in treating huntington's disease” (The Governors of the University of Alberta, priority 2009, dated 2015):
# How the values were obtained:
# STHdh^111Q/111Q cells [1] = assay: Induction and measurement of apoptosis (annexin V binding / active caspase-3, FACS) in HD knock-in striatal cells; settings: for protection from apoptosis (annexin V binding, caspase 3 activation): 0.1-1-5-10-20 μM Liga20, knock-in striatal cells WT or HD, FIG. 13
# Experimental: Conditionally-immortalized rat striatal ST14A cells and ST14A cells expressing an N-terminal fragment of mHtt containing 120 glutamines (N548-120Q) were kindly provided by Dr. E. Cattaneo (University of Milan, Italy) and maintained in culture at the permissive temperature (33° C.) as previously reported (Rigamonti et al., 2001). Conditionally-immortalized mouse striatal knock-in cells expressing endogenous levels of wild-type (STHdh^Q7/Q7) or mHtt (STHdh^Q111/Q111) were a gift from Dr. M. E. MacDonald (Massachusetts General Hospital, Boston, Mass., USA) and were maintained as previously described (Trettel et al., 2000).
# In order to induce apoptosis immortalized cells were incubated at 39° C. […] For apoptosis detection, at the end of each treatment cells were collected, washed with PBS and incubated with PE-conjugated annexin V (BD Biosciences) according to the manufacturer's instructions. For the simultaneous detection of active caspase-3 and annexin V binding, cells were first labeled with annexin V as indicated above, then fixed in 4% paraformaldehyde and permeabilized with 0.3% saponin in PBS containing 4% donkey serum.
# GM1 (Alexis) at the indicated concentrations was added to the cells in serum-free medium at the time when cells were shifted at 39° C. to induce apoptosis.
# K252a (200 nM, Calbiochem) was used to inhibit TrK receptor-mediated signaling. […] Both inhibitors were administered to the cells 2 hours before induction of apoptosis and administration of GM1.
# STHdh^7Q/7Q cells [2] = type: cell-based, mouse
# STHdh^7Q/7Q cells [3] = assay: Induction and measurement of apoptosis (annexin V binding / active caspase-3, FACS) in wild-type knock-in striatal cells; type: cell-based, mouse
# Experimental: To inhibit ganglioside synthesis, wild-type cells were incubated for 3 days in medium containing 10 μM 1-phenyl-2-palmitoylamino-3-morpholino-1-propanol (PPMP, Matreya, Pleasant Gap, Pa., USA). Cells were then washed two times with PBS and incubated for 12 hours at 39° C. in serum-free medium to induce apoptosis.
# [4] = system: Htt phosphorylation at Ser13 and S16; assay: PPMP treatment and immunoblotting of total and phospho-Htt in striatal knock-in cells; type: cell-based, mouse; settings: 10 μM PPMP for 3 days
# Experimental: Knock-in striatal cells expressing wild-type Htt (7/7) or mHtt (111/111) (Trettel, F., et al. (2000)) were incubated for 3 days in medium containing 10 μM 1-phenyl-2-palmitoylamino-3-morpholino-1-propanol (PPMP, Matreya, Pleasant Gap, Pa., USA) to inhibit ganglioside synthesis. Cells were then washed two times with PBS and lysed in 50 mM Tris, 1% NP-40, 1 mM EDTA, 10 mM NaF, 1 mM Na2VO4 and 1:100 protease inhibitor cocktail (SIGMA-Aldrich). […] HRP-conjugated secondary antibodies were used at 1:3,000 dilution (Bio-Rad Laboratories, Hercules, Calif., USA). Protein bands were detected by ECL Plus and quantitated with Quantity One® software (Bio-Rad Laboratories, Hercules, Calif., USA).
# In these experiments, synthesis of gangliosides was inhibited in striatal knock-in cells with PPMP, as above. Levels of total and phospho-Htt were detected in total cell lysates using immunoblotting (Panel A) with mAb2166 and N17pS13pS16 antibody, respectively. Panel B is a graph is the densitometric analysis of the immunoblot show in Panel A.
# [5] = Wu et al., 2004; cited from earlier work
# AKT = AKT activation (phospho-AKT/AKT ratio) by immunoblotting in striatal knock-in cells; type: cell-based, mouse; settings: for phospho-AKT/AKT ratio: 7 minutes and 6 hours after addition of GM1, serum-free medium at 39° C.
# Experimental: FIG. 7—GM1 protective effect on striatal cells is partially mediated by AKT activation. A) Akt phosphorylation was measured 7 minutes and 6 hours after addition of GM1 in serum-free medium and incubation at 39° C. to induce cell death. Analysis of phospho-AKT/AKT ratio, indicative of AKT activation, was performed by densitometric analysis of immunoblots in three independent experiments. In each experiment, the pospho-AKT/AKT ratio measured in wild-type untreated cells (control) was arbitrarily set to 100% to which HD and GM1-treated samples were compared. Mean values±SD and representative immunoblots are shown. […] The percentage of apoptotic cells was measured by annexin V binding. Data are the mean±SD of 3 experiments, each performed in triplicate. 7/7, STHdh^7Q/7Q; 111/111, STHdh^111Q/111Q; *, p<0.05; **, p<0.001; ***, p<0.0001
# Cells were scraped in 10 mM Tris-HCl, pH 7.4, containing 1% NP40, 10 mM NaF, 1 mM Na2VO4 and 1:100 protease inhibitor cocktail (SIGMA-Aldrich, St. Louis, Mo., USA) and lysed by sonication followed by incubation on ice for 30 minutes. Cell debris were removed by centrifugation at 15,000×g for 15 minutes. Protein concentration in the supernatant was measured by BCA assay (Pierce). Thirty μg of proteins were resolved on 10% SDS-PAGE and transferred to nitrocellulose membranes (Bio-Rad Laboratories, Hercules, Calif., USA). Membranes were blocked with 5% non-fat milk in TBS-T (50 mM Tris-HCl, 150 mM NaCl, pH 7.4, 0.1% Tween 20) for 1 hour and then probed overnight with primary antibodies: anti-phospho-AKT (Ser473) (1:500), anti-AKT (1:500) (both from Cell Signaling), Abcam). HRP-conjugated secondary antibodies were used at 1:3,000 dilution (Bio-Rad Laboratories, Hercules, Calif., USA). Protein bands were detected by ECL Plus (Amersham Biosciences) and analyzed with Quantity One® software (Bio-Rad Laboratories, Hercules, Calif., USA).
# [6] = system: Htt phosphorylation at Ser13 and Ser16; assay: Htt phosphorylation in cerebral cortex homogenate of GM1- and CSF-infused mice (immunoblotting, pSer13Ser16 antibody); type: in vivo, mouse; settings: YAC128 and WT littermates infused for 28 days
# Experimental: At the end of the GM1 infusion protocol (28 days after peristaltic pump implantation), mice were euthanized. Brain cortices were dissected and homogenized in 50 mM Tris, 1% NP40, 1 mM EDTA, 10 mM NaF, 1 mM Na2VO4 and 1:100 protease inhibitor cocktail (SIGMA-Aldrich). […] Alexa680-conjugated secondary antibody were used at 1:1,000 dilution in Odyssey buffer. Imaging and analysis were performed using and Odyssey Infrared System (LiCor).
# Subsequent to the experimental protocol on animals described above, the mouse brains were dissected and homogenized to examine Htt phosphorylation at Ser13 and Ser16.
# In FIG. 20, YAC128 mice and WT littermates infused with CSF (vehicle) or GM1 for 28 days were sacrificed and the amount of phospho-Htt in the same amount of cerebral cortex homogenate was detected by immunoblotting with a pSer13Ser16 specific antibody.
# STHdh^111Q/111Q cells [7] = type: cell-based, mouse; settings: 50 μM GM1, HD cells, FIG. 5C
# wild-type mice = assay: Motor behavior (rotarod and horizontal ladder task) during chronic intraventricular GM1 infusion in wild-type littermates; settings: intraventricular infusion for 28 days
# Experimental: (§1) The pump infused a solution of 5.6 mg GM1/ml in artificial cerebrospinal fluid (CSF) (or CSF only in control groups) into the brain ventricle at constant rate (0.25 μl/h, corresponding to 1.4 μg GM1/h or 33.6 μg GM1/day) for 28 days. […] Mice were let recovery for a week, after which motor behavior tests were performed on weekly bases.
# (§2) Motor behavior was evaluated with two sensitive tests that are considered the gold-standard for analysis of HD motor deficit: rotarod and horizontal ladder test (Ferrante, R. J. (2009)) To avoid that stress and anxiety would affect motor performance, mice were acclimatized for two days to training room, instruments and tasks to perform, before measuring the actual performance in each specific task. […] Latency to fall off the rotarod in each of these sessions was measured, averaged and compared across groups. For the horizontal ladder walking test, a task that assesses loss and recovery of sensori-motor functions 16, mice were recorded with a videocamera as they walked spontaneously across the ladder. […]
# (§3) The pump infused a solution of 3.6 mg GM1/ml in artificial CSF (or CSF only in control groups) into the brain ventricle at constant rate (0.25 μl/h) for 4 weeks. The amount of GM1 infused was calculated in order to achieve 50 μM final concentration in the mouse CSF. […]
# [8] = cited from earlier work
# YAC128 mice = assay: Motor behavior (rotarod and horizontal ladder task) during chronic intraventricular GM1 infusion in YAC128 mice
# Experimental: as §1, §2, §3
# mHtt = assay: Huntingtin immunoprecipitation and immunoblotting with anti-phospho-Ser antibody; type: cell-based, mouse; settings: STHdh^111Q/111Q cells, 50 μM GM1 for 5 minutes
compound,measurement,setting,value
COC(=O)[C@@]1(O)C[C@H]2O[C@]1(C)n1c3ccccc3c3c4c(c5c6ccccc6n2c5c31)C(=O)NC4 [K252a],effect of pan-Trk inhibitor on GM1 protective activity,"STHdh^111Q/111Q cells [1]; 200 nM K252a, 2 hours pre-incubation before GM1 and apoptotic stress, 7/7 and 111/111 cells, FIG. 10",GM1 protective activity was still fully preserved
"CCCCCCCCCCCCCCCC(=O)NC(CN1CCOCC1)C(O)c1ccccc1 (stereo not shown) [PPMP, 1-phenyl-2-palmitoylamino-3-morpholino-1-propanol]",plasma membrane GM1 levels after inhibition of ganglioside synthesis,"STHdh^7Q/7Q cells [2]; 10 μM PPMP for 3 days, wild-type cells, FIG. 6A",reduce GM1 levels to the amount observed in STHdh^111Q/111Q cells
same,cell susceptibility to apoptosis after inhibition of ganglioside synthesis,"STHdh^7Q/7Q cells [3]; 10 μM PPMP for 3 days, then 12 hours serum-free medium at 39° C., FIG. 6B",increased STHdh^7Q/7Q cell susceptibility to apoptosis to the levels observed in STHdh^111Q/111Q cells
same,Htt phosphorylation at Ser13 and S16 after inhibition of ganglioside synthesis,[4],decreases levels of phosphorylation at the same amino acid residues
LIGA-20,potency relative to GM1,[5],at least an order of magnitude more potent than GM1
same,"protection from apoptosis (annexin V binding, caspase 3 activation)",STHdh^111Q/111Q cells [1],not effective in protecting striatal cells
same,"protection from apoptosis (annexin V binding, caspase 3 activation)",STHdh^111Q/111Q cells [1]; listed as Liga20,not protective in a genetic cell model of HD
ganglioside GM1,GM1 content after GM1 administration,"STHdh^7Q/7Q cells [2]; 50 μM GM1, treated wild-type cells, FIG. 5C",further increase of GM1 content above their normal levels
same,phospho-AKT/AKT ratio,AKT; STHdh^7Q/7Q cells,increased the phospho-AKT/AKT ratio
same,levels of active (phospho) AKT compared with wild-type,AKT; STHdh^111Q/111Q cells after GM1 administration,restored to normal
same,phospho-AKT/AKT ratio,AKT; STHdh^111Q/111Q cells,increased the phospho-AKT/AKT ratio
same,phosphorylation of Htt at Ser13 and Ser16 in cerebral cortex,[6],increase in the phosphorylation of Htt at these residues
same,plasma membrane GM1 levels after GM1 administration,STHdh^111Q/111Q cells [7],complete restoration of GM1 levels
same,behavioral differences GM1 versus CSF infusion,wild-type mice,No behavioral differences were noted
same,frequency of possible adverse effects such as Guillain-Barre' syndrome (GBS),"[8]; Alter, 1998",rare
same,safety in clinical trials,"[8]; patients with stroke, Parkinson's disease, spinal cord injury",relatively safe to use
same,"protection from apoptosis (annexin V binding, active caspase-3)","STHdh^7Q/7Q cells [3]; 50 μM, serum deprivation at 39° C., wild-type cells",protected both wild-type and HD cells from apoptosis
same,cell survival,"STHdh^7Q/7Q cells [3]; treated wild-type cells, 50 μM GM1, apoptotic conditions",cell survival was also further augmented
same,effect of GM1 on PPMP-induced susceptibility to apoptosis,STHdh^7Q/7Q cells [3]; wild-type cells pre-treated with 10 μM PPMP for 3 days,abolished PPMP effects
same,susceptibility of HD cells to apoptosis compared with wild-type cells,"STHdh^111Q/111Q cells [1]; 50 μM, serum deprivation at 39° C.",restored normal susceptibility to apoptosis in HD cells
same,"protection from apoptosis (annexin V binding, active caspase-3)","STHdh^111Q/111Q cells [1]; 50 μM, serum deprivation at 39° C., HD cells",protected both wild-type and HD cells from apoptosis
same,dose-dependency of GM1 anti-apoptotic action,"STHdh^111Q/111Q cells [1]; knock-in striatal cells (7/7 and 111/111), 6 hours in serum-free medium at 39° C., FIG. 9",dose-dependent
same,motor behavior compared with wild-type mice,YAC128 mice; after 13 days of GM1 infusion,indistinguishable from wild-type mice
same,"motor behavior (rotarod, horizontal ladder task) versus CSF-infused HD mice","YAC128 mice; intraventricular infusion 0.25 μl/h for 28 days, 3 mice per group",performed significantly better than HD control mice infused with CSF
same,mHtt phosphorylation (phospho-Ser/mHtt),mHtt,increased mHtt phosphorylation
